# Measurements published in patent US4975462A, “Antiarthritic α-arylcarbamoyl cyanoacetic acid derivatives” (Bristol-Myers Company, priority 1988, dated 1990).
# Key:
# [1] = tested on: adjuvant-induced arthritis; details: J. Med. Chem., 1979, 22:1385-9; cited from earlier work
# [2] = tested on: adjuvant-induced polyarthritis (Mycobacterium butyricum); assay: Modified developing adjuvant arthritis in rats (adjuvant-induced polyarthritis, AIP); format: in vivo, male Lewis rats; details: p.o., from d. 1-8
# Procedure: A. Modified developing adjuvant arthritis in rats. This test is based on the procedure originally described by Pearson (Proc. Soc. Biol. Med., 1956, pp 91-5). Each experimental group used six male Lewis rats weighing approx. 250 gm. Arthritis was produced by a single intradermal injection of Mycobacterium butyricum (0.6 mg in 0.1 ml mineral oil) into the base of the tail. Test compounds were administered orally, once daily, starting on the day of inoculation (day 1) through day 8. The paw volume (average of two hind paws) was measured by the mercury displacement method at least twice weekly during the course of the experiment (40 to 42 days). The efficacy of a compound was expressed as the percent reduction of hind paw volume of treated vs. untreated rats using the following equation: [formula] PC=positive control (not treated, arthritic) NC=negative control (not treated, non-arthritic) RX=drug group (treated, arthritic) | ^(a) once daily, p.o., from d. 1-8. | ^(b) % Inhibition of paw edema: O = <25; + = 25-<40; ++ = 40-<60; +++ | = 60-80; ++++ = 80-100.
# [3] = tested on: carrageenin-induced paw edema; assay: Carrageenin induced paw edema in the rat (CIP); format: in vivo, male Sprague Dawley rats; details: single oral dose of 50 mg/kg 30 min. prior to carrageenin injection; 4 hrs. after carrageenin injection
# Procedure: B. Carrageenin induced paw edema in the rat.
# This test is based on the procedure originally described by Holsapple and Yim (Inflammation, 1984, 8:223). Six male Sprague Dawley rats weighing approx. 300 gm were used in each experimental group. The rats had been starved for 24 hours prior to injection of 0.1 ml of 1% carrageenin into the plantar surface of the left hind paw. Test compounds were dosed orally 30 minutes prior to carrageenin administration. The volumes of the left hind paws were measured by mercury displacement at 2,4, and 6 hours following carrageenin injection. The efficacy of a compound was expressed as the percent inhibition of carrageenin injected paw volume as compared to non-injected paw using the following equation: [formula]
# C=Vehicle control group (left paw volume-right paw volume)
# RX=Drug treated group (left paw volume-right paw volume)
# The peak of drug effects usually occurred 2-4 hours following carrageenin injection.
# ^(c) test compound administered as a single oral dose of 50 mg/kg 30
# min. prior to carrageenin injection. % Inhibition determined 4 hrs. after
# carrageenin injection; I = <25% reduction in paw volume and A =
# ≥25% reduction in paw volume.
Structure (SMILES),inhibition of adjuvant-induced arthritis in rats [1],AIP Inhib. score d. 20-22 (% Inhibition of paw edema) ([2]; 50 mg/kg once daily),AIP Inhib. score d. 40-42 (% Inhibition of paw edema) ([2]; 50 mg/kg once daily),"CIP (% Inhibition, reduction in paw volume) [3]",AIP Inhib. score d. 20-22 (% Inhibition of paw edema) ([2]; 100 mg/kg once daily),AIP Inhib. score d. 40-42 (% Inhibition of paw edema) ([2]; 100 mg/kg once daily)
"N#CCC(=O)c1ccccc1 [Benzoylacetonitrile (I), Benzoylacetonitrile]",effective inhibitors,,,,,
"CSC(=O)C(C#N)C(=O)Nc1ccc(C(F)(F)F)cc1 (stereo not drawn) [Example 1, β-Methylthio-β-oxo-α-(4-trifluoromethylphenyl)carbamoylpropionitrile]",,++++ (80-100),++++ (80-100),A (≥25% reduction in paw volume),,
"COC(=O)C(C#N)C(=O)Nc1ccc(C(F)(F)F)cc1 (stereo not drawn) [Example 2, βMethoxy-β-oxo-α-(4-trifluoromethylphenyl)carbamoylpropionitrile]",,,,I (<25% reduction in paw volume),+++ (60-80),+++ (60-80)
"CNC(=O)C(C#N)C(=O)Nc1ccc(C(F)(F)F)cc1 (stereo not drawn) [Example 3, β-Methylamino-β-oxo-α-(4-trifluoromethylphenyl) carbamoylpropionitrile]",,+++ (60-80),+++ (60-80),A (≥25% reduction in paw volume),,
